Assay [1] deals with Trypanosoma cruzi-infected mammalian cell cultures. To be noted: added to Trypanosoma cruzi-infected mammalian cell cultures; cited from earlier work.
For assay [2], the target named is T1, Human Cathepsin K (Homo sapiens, UniProt P43235).
T1 construct: Dr. Boris Turk (Josef Stefan Institute, Ljubljana, Slovenia)
T1 sequence (P43235 115-329): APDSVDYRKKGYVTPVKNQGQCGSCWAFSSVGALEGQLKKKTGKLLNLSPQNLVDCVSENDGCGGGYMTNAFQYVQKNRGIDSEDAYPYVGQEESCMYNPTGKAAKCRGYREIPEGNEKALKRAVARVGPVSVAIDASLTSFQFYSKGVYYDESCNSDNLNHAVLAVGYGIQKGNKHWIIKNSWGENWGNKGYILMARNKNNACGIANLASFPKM
Nature of the assay: Cathepsin peptidase activity assay, human cathepsin K (Ki). The class given is biochemical. The following applies: pH 5.5, 25±1° C. The method, then:
(§1) Assay protocols were based on literature precedent (Table 1; Barrett, A. J., Rawlings, N. D. and Woessner, J. F., 1998, Handbook of Proteolytic Enzymes, Academic Press, London and references therein) and modified as required to suit local assay protocols. Enzyme was added as required to initiate the reaction and the activity, as judged by the change in fluorescence upon conversion of substrate to product, was monitored over time. All assays were carried out at 25±1° C.
(§2) Bovine cathepsin S, human cathepsin L, human cathepsin H and human cathepsin B were obtained from CN Biosciences. Recombinant human cathepsin S, human cathepsin K and human cathepsin X were obtained from Dr. Boris Turk (Josef Stefan Institute, Ljubljana, Slovenia). Unless otherwise stated, all peptidase activity assays were carried out in 10 mM bis-tris-propane (BTP), pH 6.5 containing 1 mM EDTA, 5 mM 2-mercaptoethanol and 1 mM CaCl2. Human cathepsin H activity assays were carried out in 10 mM BTP pH 6.5, 142 mM […], 1 mM CaCl2, 1 mM EDTA, 1 mM DTT, 0.035 mM Zwittergent 3–16. Human cathepsin K assays were carried out in 100 mM sodium acetate; pH 5.5 containing 20 mM L-cysteine and 1 mM EDTA (Bossard, M. J., et. al., J. Biol. Chem., […], 12517–12524, 1996). […] The final enzyme concentrations used in the assays were 0.5 nM bovine cathepsin S, 1 nM cathepsin L, 0.1 nM cathepsin B, 0.25 nM Cathepsin K; 1 nM cathepsin X and 10 nM cathepsin H. For the inhibition assays, the substrates used for cathepsin S, cathepsin L, cathepsin B, cathepsin K and cathepsin H were boc-Val-Leu-Lys-AMC (KM^app≈30 μM, Ac-Phe-Arg-AMC (KMaPP 20 EM), Z-Phe-Arg-AMC (KM^app≈40 μM), Z-Leu-Arg-AMC (KM^app≈2 μM); Bz-Phe-Val-Arg-AMC (KM^app≈150 μM) respectively. In each case the substrate concentration used in each assay was equivalent to the KM^app. The rate of conversion of substrate to product was derived from the slope of the increase in fluorescence monitored continuously over time.
(§3) The apparent inhibition constant (Ki) for each compound was determined on the basis that inhibition was reversible and occurred by a pure-competitive mechanism. The Ki values were calculated, from the dependence of enzyme activity as a function of inhibitor concentration, by direct regression analysis (Prism v 3.02) using Equation 2 (Cornish-Bowden, A., 1995.).
(§4) In situations where the apparent dissociation constant (Ki^app) approached the enzyme concentrations, the Ki^app values were calculated using a quadratic solution in the form described by Equation 3 (Morrison, J. F. Trends Biochem. Sci., 7, 102–105, 1982; Morrison, J. F. Biochim. Biophys. Acta, 185, 269–286, 1969; Stone, S. R. and Hofsteenge, J. Biochemistry, 25, 4622–4628, 1986).

Assay [3] concerns the target T2, Human Cathepsin L (Homo sapiens, UniProt P07711).
T2 construct: purchased CN Biosciences
Put plainly: Cathepsin peptidase activity assay, human cathepsin L (Ki). The class given is biochemical. The following applies: pH 6.5, 25±1° C. The method, then:
as §1, §2, §3, §4

Assay [4] has as its target T3, Bovine Cathepsin S (Bos taurus, UniProt P25326).
T3 construct: purchased CN Biosciences
Nature of the assay: Cathepsin peptidase activity assay, bovine cathepsin S (Ki). To be noted: pH 6.5, 25±1° C. The class given is biochemical. Here is the method:
as §1, §2, §3, §4

Assay [5] addresses Cruzipain (Trypanosoma cruzi, UniProt P25779). Put plainly: Trypanosoma cruzi cruzipain peptidase activity assay (Ki). The class given is biochemical. To be noted: wild-type cruzipain from Trypanosoma cruzi Dm28 epimastigotes, pH 6.75, 25±1° C. The method, then:
as §1
Wild-type cruzipain, derived from Trypanosoma cruzi Dm28 epimastigotes, was obtained from Dr. Julio Scharfstein (Instituto de Biofisica Carlos Chagas Filho, Universidade Federal do Rio de Janeiro, R10 de Janeiro, Brazil). Activity assays were carried out in 100 mM sodium phosphate, pH 6.75 containing 1 mM EDTA and 10 mM L-cysteine using 2.5 nM enzyme. Ac-Phe-Arg-AMC (KM^app≈12 μM) and D-Val-Leu-Lys-AMC (KM^app≈4 μM) were used as the substrates. Routinely, Ac-FR-AMC was used at a concentration equivalent to KM^app and D-Val-Leu-Lys-AMC was used at a concentration of 25 μM. The rate of conversion of substrate to product was derived from the slope of the increase in fluorescence monitored continuously over time.
as §3, §4

Assay [6] deals with Trypanosoma cruzi infection. To be noted: during the acute phase of infection; cited from earlier work.

This is an account of results in US7132449B2, “Inhibitors of cruzipain and other cysteine proteases” (Amura Therapeutics Limited, priority 2001, dated 2006).

T3 sequence (P25326 115-331): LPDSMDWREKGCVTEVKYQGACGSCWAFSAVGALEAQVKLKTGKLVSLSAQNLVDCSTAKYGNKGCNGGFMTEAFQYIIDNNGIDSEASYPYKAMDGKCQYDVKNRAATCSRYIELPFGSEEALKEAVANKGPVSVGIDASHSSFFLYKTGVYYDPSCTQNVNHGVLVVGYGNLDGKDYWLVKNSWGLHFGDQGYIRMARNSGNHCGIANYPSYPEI
Cruzipain, sequence (P25779 whole entry): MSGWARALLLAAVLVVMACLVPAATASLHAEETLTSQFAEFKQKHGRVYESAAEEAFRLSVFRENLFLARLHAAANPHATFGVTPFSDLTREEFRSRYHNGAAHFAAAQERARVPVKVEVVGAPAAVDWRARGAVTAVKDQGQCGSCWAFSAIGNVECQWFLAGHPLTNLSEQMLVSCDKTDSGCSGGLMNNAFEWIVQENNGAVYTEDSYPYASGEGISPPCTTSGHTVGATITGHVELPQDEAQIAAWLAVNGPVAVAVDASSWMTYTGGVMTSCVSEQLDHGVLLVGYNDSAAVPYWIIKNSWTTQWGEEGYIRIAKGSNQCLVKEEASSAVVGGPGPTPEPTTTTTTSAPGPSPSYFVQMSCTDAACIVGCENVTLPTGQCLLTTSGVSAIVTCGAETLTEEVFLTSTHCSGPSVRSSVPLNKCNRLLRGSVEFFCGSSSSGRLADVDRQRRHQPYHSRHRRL
T2 sequence (P07711 114-333): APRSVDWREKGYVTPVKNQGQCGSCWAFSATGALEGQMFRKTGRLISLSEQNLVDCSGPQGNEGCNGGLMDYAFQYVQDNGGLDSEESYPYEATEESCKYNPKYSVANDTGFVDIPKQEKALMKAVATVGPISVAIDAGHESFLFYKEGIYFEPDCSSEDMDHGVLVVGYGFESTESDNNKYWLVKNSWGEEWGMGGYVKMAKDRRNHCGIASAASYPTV

Take `CC(NC(=O)C(Cc1ccccc1)NC(=O)OCc1ccccc1)C(=O)CF` (stereo not drawn) [Z-Phe-Ala-FMK]: in assay [1], the “effect on replication and differentiation of the parasite” value was “blocked replication and differentiation of the parasite”.

The Ki is a measure of affinity in units of concentration, obtained from inhibition or displacement. High values mean lower affinity, low ones higher affinity. `C[C@@H]1OCC(=O)[C@H]1NC(=O)[C@H](CC1CCCCC1)SCc1ccco1` [Example 4, (2S, 3S) 3-Cyclohexyl-2-(furan-2-ylmethylsulfanyl)-N-(2-methyl-4-oxo-tetrahydrofuran-3-yl)-propionamide]: the Ki in assay [2] is above 100 µM; in assay [3], above 100 µM; in assay [4], below 10 µM; in assay [5], above 100 µM.

For `O=C(Cn1ccnc1[N+](=O)[O-])NCc1ccccc1` [benznidazole], the cure in assay [6] is around 60%.

Turning to `C[C@H]1OCC(=O)[C@H]1NC(=O)[C@H](Cc1ccccc1)OCc1cccc2ccccc12` (racemic) [Example 49], the inhibitory constant (Ki) is above 100 µM in assay [2], below 10 µM in assay [3], above 100 µM in assay [4] and above 100 µM in assay [5].

As to `CC(C)CC(C(=O)N[C@H]1C(=O)CO[C@@H]1C)c1cccc(-c2ccccc2)c1` (mixture of isomers) [Example 46, (2R, 3R) 2-Biphenyl-3-yl-4-methyl-pentanoic acid (2-methyl-4-oxo-tetrahydrofuran-3-yl)-amide], the Ki was below 1 µM in assay [2], above 5 µM in assay [3], above 20 µM in assay [4] and above 10 µM in assay [5].

Regarding `CC(C)C[C@H](CC(=O)n1ccc(-c2ccccc2)c1)C(=O)N[C@@H]1C(=O)CO[C@@H]1C` [Example 22, (2R, 3S) 4-Methyl-2-[2-oxo-2-(3-phenyl-pyrrol-1-yl)-ethyl]-pentanoic acid (2-methyl-4-oxo-tetrahydrofuran-3-yl)-amide], the Ki in assay [2] is above 5 µM; in assay [3], above 100 µM; in assay [4], above 50 µM; in assay [5], below 5 µM.
